Source: patent publication US10231980B2, “Cortexolone 17alpha-benzoate for use in the treatment of tumours” (COSMO TECHNOLOGIES LTD., priority 2014, dated 2019)

Columns and labels:
[1] = biological target: T1, glucocorticoid receptor (GR) (Homo sapiens, UniProt P04150); test: GR reporter agonist assay (induction of luminescence); type: cell-based; conditions: agonist mode
T1 construct: endogenous in cells; host or cells: human kidney epithelial cells
T1 sequence (P04150 1-777): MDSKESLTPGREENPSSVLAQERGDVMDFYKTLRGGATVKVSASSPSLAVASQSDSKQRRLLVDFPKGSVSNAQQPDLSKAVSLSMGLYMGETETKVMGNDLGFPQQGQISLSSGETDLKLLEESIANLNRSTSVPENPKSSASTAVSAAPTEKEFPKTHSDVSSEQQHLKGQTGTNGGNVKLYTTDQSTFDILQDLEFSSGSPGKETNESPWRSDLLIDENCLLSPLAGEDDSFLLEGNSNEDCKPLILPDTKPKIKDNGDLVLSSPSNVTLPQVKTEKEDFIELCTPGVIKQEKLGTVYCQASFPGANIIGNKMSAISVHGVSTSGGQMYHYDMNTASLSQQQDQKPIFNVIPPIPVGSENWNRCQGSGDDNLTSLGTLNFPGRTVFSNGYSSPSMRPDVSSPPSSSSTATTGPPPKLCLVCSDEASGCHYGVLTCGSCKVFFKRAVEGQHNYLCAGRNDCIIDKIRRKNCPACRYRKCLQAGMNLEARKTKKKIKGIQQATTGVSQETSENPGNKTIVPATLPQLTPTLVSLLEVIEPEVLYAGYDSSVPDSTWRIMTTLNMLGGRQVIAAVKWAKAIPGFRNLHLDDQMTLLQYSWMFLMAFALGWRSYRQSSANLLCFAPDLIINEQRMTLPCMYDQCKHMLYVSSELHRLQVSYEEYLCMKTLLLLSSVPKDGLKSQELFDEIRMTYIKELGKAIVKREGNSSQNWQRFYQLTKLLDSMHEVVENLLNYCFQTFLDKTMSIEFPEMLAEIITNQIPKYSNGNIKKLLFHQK
Method: (§1) The androgen and glucocorticoid hormones elicit divergent and often opposing effects in cells, tissues, and animals. […] CB-03-06 GR antagonist and agonist activities were tested on an in vitro assay. Briefly, human kidney epithelial cells were transfected with DNA construct containing GR binding sites linked to luminescent based reporter molecule. After 24 hours, cells were treated under antagonist or agonist modes. After an additional 24 hours, luminescence which is proportional to GR agonist transcriptional activity was quantitated.
Agonist Assay—was based on induction of luminescence by CB-03-06
The agonist activity of CB-03-06 was compared to a RU486 which is known to not have agonist activity.

[2] = In vivo pharmacokinetics in plasma; conditions: mice; for AUC: mouse, plasma
Method: The pharmacokinetic of CB-03-06 was evaluated in plasma of mice after intravenous (iv), subcutaneous (SC) and oral administration (PO).
Mice (3 per group) were administered with the following doses and blood was collected at the indicated times. Plasma samples were analyzed by HPLC-MS/MS.

[3] = In vitro metabolism in plasma; type: in vitro ADME; conditions: human plasma, 37 C, through 8 hours
Method: (§2) To obtain some insight on the metabolism of CB-03-06 in human and rat plasma, a specific assay was designed. Briefly, the compound was incubated at different time points in human and rat plasma at 37 C. After incubation, the samples were tested for presence of the intact compound by liquid chromatography.

[4] = system: caspases 8, 9, 3/7 in LNCaP cells; test: Caspase 8, 9 and 3/7 activity; type: cell-based; conditions: 24 hour incubation, Enzalutamide positive control
Method: After 24 hours, test compounds were added to cells. Gemcitabine (a known pancreatic cancer chemotherapeutic agent) and DMSO were used as positive and negative controls, respectively. There were three incubation time points: 8 hours, 24 hours, and 48 hours. After each time point, cells were lysed in multiplex buffer containing the caspase 3/7 substrate combined with either caspase 8 or caspase 9 reagents, which contain stable luciferase in proprietary buffers. The lysates were transferred to white opaque 96-well plates before measuring luminescence on a Tecan Safire instrument. Parallel plates treated identically were used to determine cell viability. All caspase activities were corrected for the number of viable cells.
The same assay was repeated using LNCaP prostate cancer cell lines. […] The results are shown in FIG. 12 after 24 hour incubation when the caspase activities peaked.

[5] = system: 22Rv1; test: In vitro proliferation, larger panel (Example 14); type: cell-based; conditions: Homo sapiens, Table III
Source text: Results are depicted in Table III.

[6] = system: MiaPaca2; test: Annexin V / propidium iodide apoptosis flow cytometry; type: cell-based; conditions: 24 hours, control 12%
Method: CB-03-06 was evaluated to determine if the mechanism of cytotoxicity on cancer cell lines was mediated by apoptosis and cell cycle arrest. Cancer cell lines were seeded in 6-well flat bottom plates. After 24 hours, test compounds or DMSO vehicle (negative control) were added. After an additional 24 hours, cells were scraped and stained with fluorescein conjugated Annexin V and propidium iodide, and analyzed by flow cytometry.

[7] = In vitro metabolism in plasma; type: in vitro ADME, rat; conditions: 37 C
Method: as §2

[8] = biological target: T1, glucocorticoid receptor (GR); test: GR reporter antagonist assay (inhibition of Dexamethasone-induced luminescence); type: cell-based; conditions: inhibition of Dex-induced luminescence
Method: as §1
Antagonist Assay was based on inhibition of luminescence induced by Dexamethasone (Dex).
The antagonist activity of CB-03-06 was compared to a known GR antagonist, Mifepristone (also called RU486) as shown in FIG. 7.

[9] = system: PSA secretion from LNCaP cells; test: PSA secretion Elisa; type: cell-based; conditions: Homo sapiens, 48 h, read-out: inhibition of PSA secretion IC50
Method: Prostate-specific antigen, or PSA, is a protein produced by cells of the prostate gland. The PSA test measures the level of PSA in a person's blood. The blood level of PSA is often elevated in men with prostate cancer and it used as surrogate marker to test prostate cancer progression in human population. […] LNCaP cells were seeded in 96-well flat bottom culture plates in media containing charcoal stripped serum with or without 10 nM DHT. […] After 48 hours incubation with test compounds, supernatants were harvested and tested with an Elisa assay for PSA and the same cells were lysed for cell viability assessment.

For `C[C@]12CCC(=O)C=C1CC[C@@H]1[C@@H]2CC[C@@]2(C)[C@H]1CC[C@]2(OC(=O)c1ccccc1)C(=O)CO` [CB-03-06, cortexolone 17α-benzoate], the “GR agonist activity plateau” value [1] was 45 % of Dex maximum, the “concentration activating the GR to the same extent” value ([1]; CB-03-06 compared with Dex) was 14 nM and the “body exposure relative to subcutaneous administration” value ([2]; intravenously) was 50%. For the same compound, the “body exposure relative to subcutaneous administration” value ([2]; orally) was 17%, the AUC ([2]; PO 40 mg/kg) was 276 ng·h/mL and the AUC ([2]; SC 40 mg/kg) was 1620 ng·h/mL. For the same compound, the AUC ([2]; iv 20 mg/kg) was 896 ng·h/mL, the “intact compound, % of initial concentration” value [3] was “over 90%” and the “Initiator (8 and 9) and Effector (3/7) caspase activities” value [4] was “induced Initiator (8 and 9,) and Effector (3/7) caspase activities better than Enzalutamide”. For the same compound, the IC50 [5] was 25 µM, the “cells in apoptosis (early and late)” value [6] was 56 % cells and the “degradation in rat compared to human plasma” value [7] was “degrades faster in rat compared to human plasma”. For the same compound, the “intact compound, % of initial concentration” value ([7]; rat plasma, through 8 hours) was “over 90%”, the “GR antagonist potency, times less than RU486” value [8] was 100 times and the IC50 [9] was 4 µM.
